Earlier results in patent publication US7481758B2, “Pharmaceutically enhanced low-energy radiosurgery” (Sirius Medicine, LLC, priority 1997, dated 2009).

Columns and labels:
lymphocytes = conditions: in lymphocytes; low-energy photons
brain tumors = conditions: low-energy x-rays and iodine, brain tumors in rabbits

Structure (SMILES): II [iodine]
- dose enhancement (lymphocytes): up to 3
- dose enhancement (brain tumors): about 30%
